One block for each compound: values may come before it.
Key:
[1] = Caco-2 Permeability Assay; assay type: in vitro ADME, human; settings: human
In short: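 Caco-2 monolayers cultured 21 days (TEER >600 […]); test article at 10 μM in HBSS/HEPES pH 7.4 transport medium, dosed apical or basolateral, ±Pgp inhibitor. Incubated 90 min at 37 °C; both compartments quantified by LC-MS/MS. Papp (A→B, B→A), efflux ratio and % recovery calculated.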

[2] = Stability in Simulated Gastric Fluid (SGF); assay type: in vitro ADME; design: key: % parent compound remaining relative to 0-minute sample
In short: (§1)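 Stability was tested at 37° C in pepsin-supplemented gastric fluid, pH 1.2, and pancreatin-supplemented intestinal fluid, pH 6.8, using 2 μg/mL final compound over 0–60 minutes. Remaining parent was quantified by LC-MS/MS and expressed as a percentage of time zero.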

[3] = Stability in Simulated Intestinal Fluid (SIF); assay type: in vitro ADME; design: key: % parent compound remaining relative to 0-minute sample
In short: as §1

Plasma Stability = assay type: in vitro ADME, human
In short: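 Compounds incubated at 1 μM in fresh human plasma for 1 hour at 37° C, then protein-precipitated with acetonitrile/formic acid containing internal standard. Remaining parent measured by LC-MS/MS in triplicate, expressed as percent of control remaining.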

[4] = Caco-2, pH 7.4, donor 10 μM, 90 minutes, 37° C., direction not given
[5] = % remaining at 1 h, SGF with pepsin pH 1.2, 2 μg/mL, 37° C.
[6] = % remaining at 1 h, SIF with pancreatin pH 6.8, 2 μg/mL, 37° C.
[7] = % remaining at 1 h, human plasma, 1 μM, 37° C.
[8] = Caco-2, pH 7.4, Caco-2 monolayer
[9] = % remaining at 1 h in simulated gastric fluid
[10] = % remaining at 1 h in simulated intestinal fluid
[11] = % remaining at 1 h in human plasma
[12] = Caco-2, pH 7.4, Caco-2 monolayer, the 17th table
[13] = % remaining at 1 h in simulated gastric fluid, the 17th table
[14] = % remaining at 1 h in simulated intestinal fluid, the 17th table
[15] = % remaining at 1 h in human plasma, the 17th table
[16] = bare number, unit or time not given

Papp at 90 min, 10 µM [1, 4]: 161 nm/s
SGF [2, 5]: 99% remaining
SIF [3, 6]: 99% remaining
human Plasma stability (Plasma Stability; [7]): 97% remaining
SMILES: CC(C)OCCn1c(SCOC(=O)N(C)c2ccccc2)nc(=O)c2[nH]ccc21 [Example 209, ({4-oxo-1-[2-(propan-2-yloxy)ethyl]-1H,4H,5H-pyrrolo[3,2-d]pyrimidin-2-yl}sulfanyl)methyl N-methyl-N-phenylcarbamate]

SMILES: CC(C)OCCn1c(=S)[nH]c(=O)c2c1ccn2COC(=O)CCCCNC(=O)CN(C)C(=O)CNC(=O)OC(C)(C)C.O=C(O)C(F)(F)F [Example 57]
Papp at 90 min, 10 µM [1, 8]: 2.8 nm/s
SGF [2, 9]: 81% remaining
SIF [3, 10]: 96% remaining
human Plasma stability (Plasma Stability; [11]): 0% remaining

SMILES: CC(C)OCCn1c(SCOC(=O)CCCOC(=O)[C@H](N)Cc2ccccc2)nc(=O)c2c1ccn2COC(=O)CCCOC(=O)[C@H](N)Cc1ccccc1.O=C(O)C(F)(F)F.O=C(O)C(F)(F)F [Example 364, bis(trifluoroacetic acid) [(5-{[(4-{[(2R)-2-amino-3-phenylpropanoyl]oxy}butanoyl)oxy]methyl}-4-oxo-1-[2-(propan-2-yloxy)ethyl]-1H,4H,5H-pyrrolo[3,2-d]pyrimidin-2-yl)sulfanyl]methyl 4-{[(2R)-2-amino-3-phenylpropanoyl]oxy}butanoate]
Papp at 90 min, 10 µM [1, 8]: 2.77 nm/s
SGF ([2]; simulated gastric fluid, remaining at 1 h): 47% remaining
SIF ([3]; simulated intestinal fluid, remaining at 1 h): 1% remaining
human Plasma stability (Plasma Stability; human plasma, remaining at 1 h): 31% remaining

SMILES: CC(C)OCCn1c(=S)[nH]c(=O)c2c1ccn2COC(=O)CCCCNC(=O)CN(C)C(=O)OC(C)(C)C.O=C(O)C(F)(F)F [Example 53]
Papp at 90 min, 10 µM [1, 8]: 34.3 nm/s
SGF [2, 9]: 92% remaining
SIF [3, 10]: 98% remaining
human Plasma stability (Plasma Stability; [11]): 0% remaining

Papp at 90 min, 10 µM [1, 12]: 103 nm/s
SGF [2, 13]: 95% remaining
SIF [3, 14]: 100% remaining
human Plasma stability (Plasma Stability; [15]): 99% remaining
SMILES: CC(C)OCCn1c(=S)[nH]c(=O)c2c1ccn2C(=O)NCc1ccccc1 [Example 228]

Papp at 90 min, 10 µM [1, 8]: 57.8 nm/s
SGF ([2]; simulated gastric fluid, @ 1 h): 82% @ 1 h
SIF ([3]; simulated intestinal fluid, @ 1 h): 1% @ 1 h
human Plasma stability (Plasma Stability; human plasma, @ 1 h): 26% @ 1 h
SMILES: CC(C)OCCn1c(=S)n(COC(=O)CNC(=O)OC(C)(C)C)c(=O)c2c1ccn2COC(=O)CNC(=O)OC(C)(C)C [Example 283]

SMILES: CC(C)OCCn1c(=S)[nH]c(=O)c2c1ccn2COC(=O)CCCCOC(=O)[C@@H](N)C(C)C.O=C(O)C(F)(F)F [Example 335, trifluoroacetic acid {4-oxo-1-[2-(propan-2-yloxy)ethyl]-2-sulfanylidene-1H,2H,3H,4H,5H-pyrrolo[3,2-d]pyrimidin-5-yl}methyl 5-{[(2S)-2-amino-3-methylbutanoyl]oxy}pentanoate]
Papp at 90 min, 10 µM ([1]; Caco-2, pH 7.4): 33.2 nm/s
SGF [2, 16]: 99
SIF [3, 16]: 9
human Plasma stability (Plasma Stability; % remaining @ 1 h): 3% remaining

SMILES: CC(C)OCCn1c(=S)[nH]c(=O)c2c1ccn2COC(=O)CCNC(=O)[C@H](Cc1ccccc1)NC(=O)OCC1c2ccccc2-c2ccccc21.O=C(O)C(F)(F)F [Example 23]
Papp at 90 min, 10 µM [1, 8]: 19.4 nm/s
SGF [2, 9]: 93% remaining
SIF [3, 10]: 84% remaining
human Plasma stability (Plasma Stability; [11]): 92% remaining

SMILES: CC(C)OCCn1c(=S)n(COC(=O)[C@H](N)C(C)C)c(=O)c2c1ccn2COC(=O)[C@H](N)C(C)C.O=C(O)C(F)(F)F.O=C(O)C(F)(F)F [Example 301, bis(trifluoroacetic acid) [3-({[(2R)-2-amino-3-methylbutanoyl]oxy}methyl)-4-oxo-1-[2-(propan-2-yloxy)ethyl]-2-sulfanylidene-1H,2H,3H,4H,5H-pyrrolo [3,2-d]pyrimidin-5-yl]methyl (2R)-2-amino-3-methylbutanoate]
Papp at 90 min, 10 µM ([1]; Caco-2, pH 7.4): 17.2 nm/s
SGF ([2]; % remaining @ 1 h): 97% @ 1 h
SIF ([3]; % remaining @ 1 h): 10% @ 1 h
human Plasma stability (Plasma Stability; % remaining @ 1 h): 5% @ 1 h

SMILES: CC[C@H](C)[C@H](N)C(=O)NCCCCC(=O)OCn1ccc2c1c(=O)[nH]c(=S)n2CCOC(C)C.O=C(O)C(F)(F)F [Example 37]
Papp at 90 min, 10 µM [1, 8]: 10.9 nm/s
SGF [2, 9]: 88% remaining
SIF [3, 10]: 89% remaining
human Plasma stability (Plasma Stability; [11]): 1% remaining

Papp at 90 min, 10 µM [1, 4]: 134 nm/s
SGF [2, 5]: 97%
SIF [3, 6]: 94%
human Plasma stability (Plasma Stability; [7]): 40%
SMILES: CC(C)OCCn1c(=S)[nH]c(=O)c2c1ccn2COC(=O)[C@@H]1CCC(=O)N1C(=O)OCc1ccccc1 [Example 4, 1-benzyl 2-{4-oxo-1-[2-(propan-2-yloxy)ethyl]-2-sulfanylidene-1H,2H,3H,4H,5H-pyrrolo[3,2-d]pyrimidin-5-yl}methyl (2S)-5-oxopyrrolidine-1,2-dicarboxylate]

SMILES: CC(C)OCCn1c(=S)n(COC(=O)[C@H](Cc2ccccc2)NC(=O)OC(C)(C)C)c(=O)c2c1ccn2COC(=O)[C@H](Cc1ccccc1)NC(=O)OC(C)(C)C [Example 304, [3-({[(2S)-2-{[(tert-butoxy)carbonyl]amino}-3-phenylpropanoyl]oxy}methyl)-4-oxo-1-[2-(propan-2-yloxy)ethyl]-2-sulfanylidene-1H,2H,3H,4H,5H-pyrrolo[3,2-d]pyrimidin-5-yl]methyl (2S)-2-{[(tert-butoxy)carbonyl]amino}-3-phenylpropanoate]
Papp at 90 min, 10 µM ([1]; Caco-2, pH 7.4): 3.4 nm/s
SGF ([2]; % remaining @ 1 h): 44% @ 1 h
SIF ([3]; % remaining @ 1 h): 67% @ 1 h
human Plasma stability (Plasma Stability; % remaining @ 1 h): 99% @ 1 h

Papp at 90 min, 10 µM [1, 8]: 176 nm/s
SGF [2, 9]: 61% remaining
SIF [3, 10]: 64% remaining
human Plasma stability (Plasma Stability; [11]): 4% remaining
SMILES: CC(C)OCCn1c(=S)[nH]c(=O)c2c1ccn2COC(=O)[C@H]1CCN(C(=O)OC(C)(C)C)C1 [Example 130]

SMILES: CC(C)OCCn1c(=S)[nH]c(=O)c2c1ccn2COC(=O)[C@@H](Cc1ccccc1)NC(=O)OC(C)(C)C [Example 305, {4-oxo-1-[2-(propan-2-yloxy)ethyl]-2-sulfanylidene-1H,2H,3H,4H,5H-pyrrolo [3,2-d]pyrimidin-5-yl}methyl (2R)-2-{[(tert-butoxy)carbonyl]amino}-3-phenylpropanoate]
Papp at 90 min, 10 µM ([1]; Caco-2, pH 7.4): 38.4 nm/s
SGF ([2]; % remaining @ 1 h): 73% @ 1 h
SIF ([3]; % remaining @ 1 h): 1% @ 1 h
human Plasma stability (Plasma Stability; % remaining @ 1 h): 39% @ 1 h

SMILES: CC(C)C[C@@H](N)C(=O)OCn1ccc2c1c(=O)n(CO)c(=S)n2CCOC(C)C.O=C(O)C(F)(F)F [Example 327, trifluoroacetic acid [3-(hydroxymethyl)-4-oxo-1-[2-(propan-2-yloxy)ethyl]-2-sulfanylidene-1H,2H,3H,4H,5H-pyrrolo[3,2-d]pyrimidin-5-yl]methyl (2R)-2-amino-4-methylpentanoate]
Papp at 90 min, 10 µM ([1]; Caco-2, pH 7.4): < 10.3 nm/s
SGF ([2]; % remaining @ 1 h): 100%@ 1 h
SIF ([3]; % remaining @ 1 h): 49%@ 1 h
human Plasma stability (Plasma Stability; % remaining @ 1 h): 21%@ 1 h

SMILES: CCOC(=O)N1CCCC1C(=O)NCCCCC(=O)OCn1ccc2c1c(=O)[nH]c(=S)n2CCOC(C)C.O=C(O)C(F)(F)F (stereo not drawn) [Example 65]
Papp at 90 min, 10 µM [1, 8]: 18.6 nm/s
SGF [2, 9]: 87% remaining
SIF [3, 10]: 89% remaining
human Plasma stability (Plasma Stability; [11]): 20% remaining

Papp at 90 min, 10 µM [1, 12]: 20.5 nm/s
SGF [2, 13]: 98% remaining
SIF [3, 14]: 88% remaining
human Plasma stability (Plasma Stability; [15]): 22% remaining
SMILES: CC(=O)OCc1ccccc1N(C)C(=O)OCn1ccc2c1c(=O)nc(S)n2CCOC(C)C [Example 222]

Papp at 90 min, 10 µM [1, 4]: 371 nm/s
SGF [2, 5]: 99%
SIF [3, 6]: 94%
human Plasma stability (Plasma Stability; [7]): 92%
SMILES: CC(C)OCCn1c(=S)[nH]c(=O)c2c1ccn2COC(=O)[C@@H]1CCCN1C(=O)OC(C)(C)C [Example 1, (S)-tert-Butyl (1,2,3,4-tetrahydro-1-(2-isopropoxyethyl)-4-oxo-2-thioxopyrrolo[3,2-d]pyrimidin-5-yl)methyl pyrrolidine-1,2-dicarboxylate]
